# In US12642777B2 (SHENZHEN CHINA RESOURCES JIUCHUANG MEDICAL AND …, priority 2020, dated 2026):
# What was measured:
# [1] = Pharmacokinetics and tolerated dose of intravenous mitoxantrone chemotherapy reported in a document; type: in vivo, human; conditions: 75 mg/m^2 intravenous bolus versus 3143 ng×min/ml
# Description: Moreover, the drug is metabolized rapidly after entering the blood, and the drug in the plasma is almost completely metabolized 60 min, 120 min at most, after the administration.
# [2] = intravenous bolus, 75 mg/m^2, ovarian cancer; cited from earlier work
structure (smiles),measurement,setting,value
O=C1c2c(O)ccc(O)c2C(=O)c2c(NCCNCCO)ccc(NCCNCCO)c21 [mitoxantrone],AUC of the document as multiple of the maximum AUC in the present trial,[1],10.7-32.5 times
same,AUC,[2],560 to 1700 ng·h/mL
